According to PMC6556873, “Rapid Covalent-Probe Discovery by Electrophile-Fragment Screening” (Journal of the American Chemical Society, 2019):
Where two headings read alike, the source gives them in different places.

Columns and labels:
in vitro [1] = test: in vitro; parameters: species or system CCD841, HEK293; conditions: human, hb2 cells, read-out: HB-2 Cells Viability (%)
NUDT7 = target: T1, NUDT7 (Homo sapiens, UniProt P0C024); parameters: Intact protein LC/MS covalent labelling, fragments in pools of five, 200 uM each, 4 °C; conditions: 24 h, 4 °C, pool of five; 200 µM; covalent
T1 construct: residues 14-235, E. coli, pNIC28-Bsa4, N-terminal His6 tag removed by TEV, construct 26672 Da
Protocol: (§1) Incubations were performed at 200 μM for each compound and 2 μM of protein (10 μM for BSA) for 24 h at 4 °C with moderate shaking. Incubation buffers varied among proteins (PBS pH 7.4 for QSOX1 and BSA; 10 mM HEPES pH 7.5, 0.3 M NaCl, 0.5 mM TCEP for PCAF, UPS8, and NUDT7; […]; 10 mM Na2HPO4 pH 7.5 100 mM NaCl 5 mM β-mercaptoethanol for NV3CP; 20 mM Na phosphate pH 7.5 for NNMT; […]. The reaction was stopped by quenching with formic acid, 0.4% final concentration. Each protein was incubated with the electrophilic library in pools of five compounds per well. The pool’s composition maximized the difference in mass between fragments in the same well. Incubations were performed with each fragment at 200 μM, for 24 h at 4 °C, to allow the screening of proteins that are not stable for long time periods at higher temperatures. Following incubation, we used intact protein [compound left out] chromatography/mass spectrometry (LC/MS) to identify the fragments and quantify their labeling (Figure 3A). […] There was good agreement between the percent of labeling of NUDT7 by 100 random individual compounds and that obtained in pools of five (R^2=0.78; Figure S6 and Data set 2 in the Supporting Information).

PCAF = target: T2, PCAF (Homo sapiens, UniProt Q92831); parameters: Intact protein LC/MS covalent labelling, fragments in pools of five, 200 uM each, 4 °C; conditions: 24 h, 4 °C, pool of five; 200 µM; covalent
T2 construct: gene KAT2B
Protocol: as §1

OTUB2 (OTUB2A) = target: T3, OTUB2 (OTUB2A) (Homo sapiens, UniProt Q96DC9); parameters: Intact protein LC/MS covalent labelling, fragments in pools of five, 200 uM each, 4 °C; conditions: 24 h, 4 °C, pool of five; 200 µM; covalent
T3 construct: full length residues 1-234, E. coli BL21(DE3)-R3, His tag removed by TEV, construct 27312 Da
T3 sequence (Q96DC9 1-234): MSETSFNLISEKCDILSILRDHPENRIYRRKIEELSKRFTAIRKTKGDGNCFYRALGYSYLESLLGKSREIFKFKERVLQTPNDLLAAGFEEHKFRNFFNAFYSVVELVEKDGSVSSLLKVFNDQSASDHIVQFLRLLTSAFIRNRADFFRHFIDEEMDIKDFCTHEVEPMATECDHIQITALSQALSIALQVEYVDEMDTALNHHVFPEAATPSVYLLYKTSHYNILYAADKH
Protocol: as §1

BSA = target: T4, BSA (Bos taurus, UniProt P02769); parameters: Intact protein LC/MS covalent labelling, fragments in pools of five, 200 uM each, 4 °C; conditions: 24 h, 4 °C, pool of five; 200 µM; covalent
T4 construct: gene ALB
Protocol: as §1

in vitro [2] = test: in vitro; parameters: species or system HB2, CCD841; conditions: human, hek293 cells
in vitro [3] = test: in vitro; parameters: species or system HB2, HEK293; conditions: human, ccd841 cells

T4 sequence (P02769 whole entry, the tested form may be a part): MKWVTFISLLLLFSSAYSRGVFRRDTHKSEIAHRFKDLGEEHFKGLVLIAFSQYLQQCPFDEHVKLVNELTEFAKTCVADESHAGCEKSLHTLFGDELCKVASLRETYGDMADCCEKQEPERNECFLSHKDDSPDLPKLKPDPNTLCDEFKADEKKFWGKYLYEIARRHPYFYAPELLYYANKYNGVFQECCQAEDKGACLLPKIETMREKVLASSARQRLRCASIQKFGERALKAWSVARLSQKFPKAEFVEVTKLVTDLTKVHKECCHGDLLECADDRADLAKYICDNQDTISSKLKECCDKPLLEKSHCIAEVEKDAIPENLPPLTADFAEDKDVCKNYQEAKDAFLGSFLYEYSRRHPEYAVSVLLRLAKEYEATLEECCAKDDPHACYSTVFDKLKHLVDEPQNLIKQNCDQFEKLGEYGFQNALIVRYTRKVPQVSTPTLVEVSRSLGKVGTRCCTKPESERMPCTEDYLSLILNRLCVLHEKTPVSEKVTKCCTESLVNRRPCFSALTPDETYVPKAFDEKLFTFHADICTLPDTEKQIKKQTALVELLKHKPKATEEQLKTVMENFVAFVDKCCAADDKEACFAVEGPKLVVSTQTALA
T2 sequence (Q92831 whole entry, the tested form may be a part): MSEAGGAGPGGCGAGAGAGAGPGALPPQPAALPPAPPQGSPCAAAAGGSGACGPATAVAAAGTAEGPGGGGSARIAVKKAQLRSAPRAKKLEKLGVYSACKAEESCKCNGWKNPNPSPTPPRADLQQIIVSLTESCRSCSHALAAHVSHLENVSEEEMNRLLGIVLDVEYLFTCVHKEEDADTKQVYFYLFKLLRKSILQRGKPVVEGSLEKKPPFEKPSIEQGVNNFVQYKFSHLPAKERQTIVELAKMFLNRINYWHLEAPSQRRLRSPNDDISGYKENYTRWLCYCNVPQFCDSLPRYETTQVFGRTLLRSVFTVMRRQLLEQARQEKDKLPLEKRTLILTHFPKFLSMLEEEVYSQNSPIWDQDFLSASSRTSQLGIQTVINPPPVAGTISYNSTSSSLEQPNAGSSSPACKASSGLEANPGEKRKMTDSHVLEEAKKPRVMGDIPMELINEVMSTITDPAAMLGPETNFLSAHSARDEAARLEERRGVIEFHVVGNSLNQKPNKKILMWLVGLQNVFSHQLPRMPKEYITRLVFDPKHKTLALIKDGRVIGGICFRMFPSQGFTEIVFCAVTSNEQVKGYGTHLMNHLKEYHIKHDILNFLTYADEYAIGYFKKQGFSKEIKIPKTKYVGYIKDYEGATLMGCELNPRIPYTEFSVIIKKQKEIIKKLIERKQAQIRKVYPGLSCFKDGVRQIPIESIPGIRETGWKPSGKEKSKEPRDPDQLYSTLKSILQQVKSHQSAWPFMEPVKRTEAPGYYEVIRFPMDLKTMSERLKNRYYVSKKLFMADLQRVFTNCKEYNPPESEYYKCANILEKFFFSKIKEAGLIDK
T1 sequence (P0C024 14-235): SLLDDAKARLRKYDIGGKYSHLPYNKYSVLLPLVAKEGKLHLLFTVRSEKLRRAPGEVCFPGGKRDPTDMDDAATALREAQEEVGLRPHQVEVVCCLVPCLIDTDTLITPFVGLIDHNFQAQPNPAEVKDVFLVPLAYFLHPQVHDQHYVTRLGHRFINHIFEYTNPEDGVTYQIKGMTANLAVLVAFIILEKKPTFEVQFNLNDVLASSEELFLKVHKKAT

## O=C(CCl)Nc1ccc(Br)cn1 [PCM-0102227]
In vitro [1]
  viability at 48 h, 10 µM: 84.3%
NUDT7
  NUDT7: 0
PCAF
  PCAF: 0
OTUB2 (OTUB2A)
  OTUB2: 0
BSA
  BSA: 0
In vitro [2]
  viability at 48 h, 10 µM: 72.4%
In vitro [3]
  viability at 48 h, 10 µM: 75.7%

## CC1(NC(=O)CCl)CCS(=O)(=O)C1 (stereo not drawn) [PCM-0102230]
In vitro [1]
  viability at 48 h, 10 µM: 105%
NUDT7
  NUDT7: 0
PCAF
  PCAF: 0
OTUB2 (OTUB2A)
  OTUB2: 0
BSA
  BSA: 0
In vitro [2]
  viability at 48 h, 10 µM: 92.6%
In vitro [3]
  viability at 48 h, 10 µM: 92.7%

## CCc1nc(NC(=O)CCl)sc1C [PCM-0102231]
In vitro [1]
  viability at 48 h, 10 µM: 61.1%
NUDT7
  NUDT7: 0.33
PCAF
  PCAF: 0
OTUB2 (OTUB2A)
  OTUB2: 0
BSA
  BSA: 0
In vitro [2]
  viability at 48 h, 10 µM: 56.5%
In vitro [3]
  viability at 48 h, 10 µM: 78.9%

## O=C(CCl)Nc1ccccc1[N+](=O)[O-] [PCM-0102232]
In vitro [1]
  viability at 48 h, 10 µM: 75.4%
NUDT7
  NUDT7: 0.24
PCAF
  PCAF: 0
OTUB2 (OTUB2A)
  OTUB2: 0.2
BSA
  BSA: 0
In vitro [2]
  viability at 48 h, 10 µM: 73.9%
In vitro [3]
  viability at 48 h, 10 µM: 81.8%

## O=C(CCl)Nc1nc(-c2c[nH]c3ccccc23)cs1 [PCM-0102233]
In vitro [1]
  viability at 48 h, 10 µM: 4.8%
NUDT7
  NUDT7: 0.26
PCAF
  PCAF: 0
OTUB2 (OTUB2A)
  OTUB2: 0.25
BSA
  BSA: 0
In vitro [2]
  viability at 48 h, 10 µM: 6.5%
In vitro [3]
  viability at 48 h, 10 µM: 65%

## COc1ccccc1NC(=O)CCl [PCM-0102236]
In vitro [1]
  viability at 48 h, 10 µM: 71%
NUDT7
  NUDT7: 0
PCAF
  PCAF: 0
OTUB2 (OTUB2A)
  OTUB2: 0.28
BSA
  BSA: 0
In vitro [2]
  viability at 48 h, 10 µM: 58.4%
In vitro [3]
  viability at 48 h, 10 µM: 79%

## O=C(CCl)N1CCN(S(=O)(=O)c2ccc(F)cc2)CC1 [PCM-0102237]
In vitro [1]
  viability at 48 h, 10 µM: 78.8%
NUDT7
  NUDT7: 0.06
PCAF
  PCAF: 0
OTUB2 (OTUB2A)
  OTUB2: 0
BSA
  BSA: 0
In vitro [2]
  viability at 48 h, 10 µM: 66.9%
In vitro [3]
  viability at 48 h, 10 µM: 77%

## O=C(CCl)Nc1ccc(F)c([N+](=O)[O-])c1 [PCM-0102238]
In vitro [1]
  viability at 48 h, 10 µM: 1%
NUDT7
  NUDT7: 0.23
PCAF
  PCAF: 0
OTUB2 (OTUB2A)
  OTUB2: 0.32
BSA
  BSA: 0
In vitro [2]
  viability at 48 h, 10 µM: 0.8%
In vitro [3]
  viability at 48 h, 10 µM: 3.7%

## Cl.O=C(CCl)N1CCN(c2cccc(C(F)(F)F)c2)CC1 [PCM-0102239]
In vitro [1]
  viability at 48 h, 10 µM: 4.2%
NUDT7
  NUDT7: 0.08
PCAF
  PCAF: 0
OTUB2 (OTUB2A)
  OTUB2: 0
BSA
  BSA: 0.07
In vitro [2]
  viability at 48 h, 10 µM: 19.6%
In vitro [3]
  viability at 48 h, 10 µM: 28.2%

## O=C(CCl)NNC(=O)c1ccccc1 [PCM-0102240]
In vitro [1]
  viability at 48 h, 10 µM: 98.1%
NUDT7
  NUDT7: 0
PCAF
  PCAF: 0
OTUB2 (OTUB2A)
  OTUB2: 0.2
BSA
  BSA: 0
In vitro [2]
  viability at 48 h, 10 µM: 92.4%
In vitro [3]
  viability at 48 h, 10 µM: 85.6%

## O=C(CCl)Nc1nccs1 [PCM-0102242]
In vitro [1]
  viability at 48 h, 10 µM: 88.3%
NUDT7
  NUDT7: 0
PCAF
  PCAF: 0
OTUB2 (OTUB2A)
  OTUB2: 0
BSA
  BSA: 0.17
In vitro [2]
  viability at 48 h, 10 µM: 70.1%
In vitro [3]
  viability at 48 h, 10 µM: 79.3%

## Cl.O=C(CCl)N1CCN(Cc2cccs2)CC1 [PCM-0102243]
In vitro [1]
  viability at 48 h, 10 µM: 45.7%
NUDT7
  NUDT7: 0.08
PCAF
  PCAF: 0
OTUB2 (OTUB2A)
  OTUB2: 0
BSA
  BSA: 0
In vitro [2]
  viability at 48 h, 10 µM: 43.5%
In vitro [3]
  viability at 48 h, 10 µM: 77.1%

## O=C(CCl)Nc1nc(-c2ccc(F)c(F)c2)cs1 [PCM-0102244]
In vitro [1]
  viability at 48 h, 10 µM: 6.9%
NUDT7
  NUDT7: 0.53
PCAF
  PCAF: 0
OTUB2 (OTUB2A)
  OTUB2: 0.29
BSA
  BSA: 0.15
In vitro [2]
  viability at 48 h, 10 µM: 0.9%
In vitro [3]
  viability at 48 h, 10 µM: 76.5%

## NC(=O)C1CN(C(=O)CCl)c2ccccc2O1 (stereo not drawn) [PCM-0102245]
In vitro [1]
  viability at 48 h, 10 µM: 58.4%
NUDT7
  NUDT7: 0.12
PCAF
  PCAF: 0
OTUB2 (OTUB2A)
  OTUB2: 0.15
BSA
  BSA: 0
In vitro [2]
  viability at 48 h, 10 µM: 31.8%
In vitro [3]
  viability at 48 h, 10 µM: 60.8%

## Cc1cc(C)c2nc(NC(=O)CCl)sc2c1 [PCM-0102246]
In vitro [1]
  viability at 48 h, 10 µM: 51.6%
NUDT7
  NUDT7: 0.83
PCAF
  PCAF: 0
OTUB2 (OTUB2A)
  OTUB2: 0.14
BSA
  BSA: 0
In vitro [2]
  viability at 48 h, 10 µM: 67.3%
In vitro [3]
  viability at 48 h, 10 µM: 79.8%
